Test results: patent US20020120098A1, “Enhanced stimulation of erythropoiesis” (priority 1996, published 2002)

System: BFU-E
Test: Colony formation assay, adult peripheral blood LDMNC: BFU-E
Type: cell-based, human
Conditions: for fold increase in BFU-E, adult blood, 0.2 U/ml Epo: ~20% O2, compared to untreated controls (no addition) at 0.2 U/ml Epo
Description: Blood was collected with informed consent from the antecubital vein of healthy adult human volunteers into vacutainers containing 143 USP U/ml sodium heparin. Low density mononuclear cells (LDMNC) were isolated by centrifugation over a density gradient as described in Example 1. Plastic adherent cells were removed by an overnight incubation in a tissue culture flask and the non-adherent cells were placed directly in a CFA. Conditions for the CFA are similar to those described in Examples 1-4.
The mean fold increase in adult blood BFU-E, CFU-E and CFU-GM progenitor number produced by 1.0 mg/ml HAo (15.6 μM) or HEMOLINK™ (15.6 μM), 100 μM hemin or 250 μM FeCl3 is shown in FIG. 9 (n=3). Cultures were maintained at ambient oxygen tensions (˜20% O2) for 14 days. The fold increase in colonies is expressed relative to control cells treated only with the respective vehicles. […] The magnitude of this increase was greater for adult than cord blood LDMNC.
The mean fold increase in adult blood BFU-E, CFU-E and CFU-GM progenitor number at 5% O2 is shown in FIG. 10 with the same additives. Results are expressed relative to control cells treated only with the respective vehicles and cultured at ambient oxygen tensions (˜20% O2). Reduced oxygen tensions (5% O)2 enhanced the growth of BFU-E which was further increased by the addition of HAo, HEMOLINK™, hemin or FeCl3. All agents stimulated a similar increase in BFU-E number (˜9-11-fold) at 5% O2 compared to untreated control cells at ambient oxygen tensions.
Mean fold increase in adult blood BFU-E, CFU-E and CFU-GM progenitor number in the presence of reduced Epo (0.2 U/ml) (n=3) at 20% O2 is shown in FIG. 11 with and without (no addition) the additives used in FIG. 9. Results are expressed relative to control cells at 2 U/ml Epo treated only with the respective vehicles (solid line at fold expansion=1.0). […] As with cord blood, CFU-GM numbers were unaffected by reductions in Epo. The addition of HAo or HEMOLINK™ to CFAs containing 0.2 U/ml Epo stimulated ˜4.5- and ˜3.5-fold increases in BFU-E and CFU-E, respectively, compared to untreated controls (no addition), restoring the progenitor number to that obtained at 2 U/ml Epo. Hemin stimulated the greatest increase in BFU-E and CFU-E (˜9- and ˜6-fold, respectively) at 0.2 U/ml Epo versus the untreated controls (no addition). FeCl3 stimulated only a ˜2-fold increase in erythroid progenitor number at 0.2 U/ml Epo.
Mean fold increase in adult blood BFU-E, CFU-E and CFU-GM progenitor number at 5% O2 in the presence of reduced Epo (0.2 U/ml) (n=3) is shown in FIG. 12 with and without the additives used in FIG. 9. […]

[Cl][Fe]([Cl])[Cl] [FeCl3]
fold increase in BFU-E, adult blood, ambient O2 (2 U/ml Epo, ambient O2, 1.0 mg/ml HAo or HEMOLINK, 100 μM hemin, 250 μM FeCl3, vs vehicle controls): < 3 fold

HAo: adult human hemoglobin obtained from red blood cells and purified by displacement chromatography; uncross linked product
fold increase in BFU-E, adult blood, 0.2 U/ml Epo: ~4.5 fold

C=CC1=C(C)C2=Cc3c(C=C)c(C)c4[n]3[Fe-2]35([Cl])[n]6c(c(C)c(CCC(=O)O)c6=CC6=[N+]3C(=C4)C(C)=C6CCC(=O)O)=CC1=[N+]25 [hemin]
fold increase in BFU-E, adult blood, 0.2 U/ml Epo: ~9 fold

HEMOLINK™: chemically crosslinked hemoglobin prepared by treating human hemoglobin with a polyaldehyde (O-raffinose)
fold increase in BFU-E, adult blood, 0.2 U/ml Epo: ~4.5 fold
